Results reported in patent publication US8450298B2, “Aminoalcohol lipidoids and uses thereof” (Massachusetts Institute of Technology, priority 2008, dated 2013).

Test system: Factor VII
Assay: In vivo Factor VII knockdown with anti-Factor VII siRNA in lipidoid formulations
Conditions: mice, 0.01 mg/kg siRNA dosing
Experimental: C57BL/6 mice (Charles River Labs) received either saline or siRNA in lipidoid formulations via tail vein injection at a volume of 0.01 ml/g. […] At 48 hours after administration, animals were anesthetized by isofluorane inhalation and blood was collected into serum separator tubes by retroorbital bleed. Serum levels of Factor VII protein were determined in samples using a chromogenic assay (Biophen FVII, Aniara Corporation) according to the manufacturer's protocols. A standard curve was generated using serum collected from saline-treated animals. Exemplary results are depicted in FIG. 7.
To test siRNA delivery efficacy in vivo, a mouse model for liver delivery was used. […] Once produced by hepatocytes, Factor VII is released into the bloodstream, and a baseline level of expression can be determined by simple blood draw and quantification of protein levels by colorimetric assay. By delivering anti-Factor VII siRNA to hepatocytes, knockdown of this model protein can be achieved and a percentage of silencing can be determined by comparison to an untreated control. […]
Following the initial in vivo screening experiments, two compounds were used to conduct a dose response. […] In addition to Factor VII measurement, the change in mouse body weight is recorded and a loss in weight is generally considered formulation induced toxicity (See FIG. 13b and FIG. 14b). […]

CCCCCCCCCC[C@@H](O)CN(CCN1CCN(CCN(C[C@H](O)CCCCCCCCCC)C[C@H](O)CCCCCCCCCC)CC1)CCN(C[C@H](O)CCCCCCCCCC)C[C@H](O)CCCCCCCCCC [(R)-C12-200]
reduction of systemic Factor VII (preliminary): approximately 50%

CCCCCCCCCCC(O)CN(CCN1CCN(CCN(CC(O)CCCCCCCCCC)CC(O)CCCCCCCCCC)CC1)CCN(CC(O)CCCCCCCCCC)CC(O)CCCCCCCCCC (centres unmarked) [C12-200]
difference between Factor VII results of racemic C12-200 and those of the R or S forms: insignificant
